The record followed here is US20050054696A1, “Indole compounds and medicinal use thereof” (priority 2001, published 2005).

SMILES strings stand for the structures.

The target of this assay is T1, recombinant human liver glycogen phosphorylase (HLGPa) (Homo sapiens, UniProt P06737).
T1 construct: made in house; host or cells: Sf9 insect cells (unpurified cell lysate used as enzyme solution)
T1 sequence (P06737 1-847): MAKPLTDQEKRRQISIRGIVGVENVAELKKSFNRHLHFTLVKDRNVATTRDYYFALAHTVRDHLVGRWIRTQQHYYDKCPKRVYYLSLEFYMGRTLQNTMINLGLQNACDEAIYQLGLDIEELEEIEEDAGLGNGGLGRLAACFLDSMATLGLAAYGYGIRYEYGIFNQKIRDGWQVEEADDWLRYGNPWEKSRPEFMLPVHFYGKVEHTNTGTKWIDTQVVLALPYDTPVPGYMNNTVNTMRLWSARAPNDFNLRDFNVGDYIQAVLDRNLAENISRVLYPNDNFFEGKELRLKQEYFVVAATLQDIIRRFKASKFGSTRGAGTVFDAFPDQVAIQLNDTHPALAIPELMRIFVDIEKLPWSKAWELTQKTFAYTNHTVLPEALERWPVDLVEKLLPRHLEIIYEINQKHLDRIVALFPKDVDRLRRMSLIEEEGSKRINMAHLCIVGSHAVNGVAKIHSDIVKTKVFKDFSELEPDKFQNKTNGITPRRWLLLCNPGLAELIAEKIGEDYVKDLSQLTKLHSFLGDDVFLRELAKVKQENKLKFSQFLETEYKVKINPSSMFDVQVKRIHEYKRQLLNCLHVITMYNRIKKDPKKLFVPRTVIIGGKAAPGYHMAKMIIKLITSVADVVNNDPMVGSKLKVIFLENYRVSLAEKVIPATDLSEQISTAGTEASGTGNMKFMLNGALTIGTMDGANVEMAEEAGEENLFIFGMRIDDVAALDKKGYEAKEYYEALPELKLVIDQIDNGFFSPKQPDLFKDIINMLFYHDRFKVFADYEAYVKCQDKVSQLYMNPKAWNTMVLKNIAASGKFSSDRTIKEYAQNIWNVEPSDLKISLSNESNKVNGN
Put plainly: Measurement of liver glycogen phosphorylase activity (enzyme inhibitory activity against HLGPa). The class given is biochemical. The following applies: Sf9 cell lysate expressing recombinant enzyme; reverse reaction (glycogen synthesis from G1-P), phosphate by malachite green, 60 min room temperature. The procedure:
Measurement Method of Liver Glycogen Phosphorylase Activity
The measurement of the glycogen phosphorylase activity was performed by measuring the concentration of phosphoric acic produced by a reverse reaction, that is, a reaction wherein the glycogen phosphorylase synthesizes glycogen from G1-P. A cell lysate of Sf9 cells that forcibly expressed recombinant human liver glycogen phosphorylase was diluted to a protein amount of 80 μg/mL with 1 mM imidazole-hydrochloric acid buffer (pH 7.0, containing 0.2 mM PMSF, 250 mM NaCl, 0.025% BSA) and the dilute cell lysate was used as an enzyme solution of human liver glycogen phosphorylase. As a substrate solution, 25 mM Tris-HCl buffer (pH 7.2, containing 250 mM KCl, 6.25 mM MgCl2, 6.25 mM EGTA, 1.25 mM glucose-1-phosphate, 2.5 mg/ml glycogen, 7.5 mM glucose) was used. The test drug was dissolved in 0.5% dimethyl sulfoxide (DMSO). To a mixture of the test drug (10 μl) and the substrate solution (20 μl) was added an enzyme solution (20 μl) to start the enzyme reaction. As a control, 0.5% DMSO was added instead of the test drug. One free of addition of enzyme was used as a blank. The mixture was reacted at room temperature for 60 min, and a malachite green solution (50 μl) was added. The mixture was further reacted at room temperature for 20 min and absorbance at 650 nm was measured. An enzyme solution was added to the blank simultaneously with the malachite green solution and the measurement was done in the same manner. The percent inhibition (%) of the test drug was calculated from ((value of control−value of the test drug)/(value of control−value of blank))×100 (%).

Turning to `O=C(NN1C(=O)CCN(c2cccc(Cl)c2)C1=O)c1cc2cc(Cl)ccc2[nH]1` [Example 3-11, 5-chloro-1H-indole-2-carboxylic acid (1-(3-chlorophenyl)-2,4-dioxoperhydropyrimidin-3-yl)amide], the 50% inhibitory concentration (IC50) was 520 nM. For `O=C(NNC(=O)c1cc2cc(Cl)ccc2[nH]1)c1cccc(C(F)(F)F)c1` [Example 1-30, 3-trifluoromethylbenzoic acid 2-(5-chloro-1H-indole-2-carbonyl)hydrazide], the IC50 is 240 nM. Turning to `N=C(NNC(=O)c1cc2cc(Cl)ccc2[nH]1)c1ccccn1` [Example 1-136, 5-chloro-1H-indole-2-carboxylic acid 2-(imino-(pyridin-2-yl)-methyl)hydrazide], the IC50 amounted to 270 nM. For `Cn1c(=O)n(NC(=O)c2cc3cc(Cl)ccc3[nH]2)c(=O)c2ccccc21` [Example 2-31, 5-chloro-1H-indole-2-carboxylic acid (1,2,3,4-tetrahydro-1-methyl-2,4-dioxoquinazolin-3-yl)amide], the IC50 is 26 nM. In the case of `Nc1cc(F)c(F)cc1C(=O)NNC(=O)c1cc2cc(Cl)ccc2[nH]1` [Example 1-100, 2-amino-4,5-difluorobenzoic acid 2-(5-chloro-1H-indole-2-carbonyl)hydrazide], the 50% inhibitory concentration (IC50) turned out to be 240 nM. `O=C(NNC(=O)C1(c2ccccc2)CC1)c1cc2cc(Cl)ccc2[nH]1` [Example 5-12, 5-chloro-1H-indole-2-carboxylic acid 2-((1-phenylcyclopropane)carbonyl)hydrazide]: the IC50 was found to be 290 nM. Consider `O=C(NNC(=O)c1cc2sccc2[nH]1)c1cc2cc(Cl)ccc2[nH]1` [Example 1-108, 4H-thieno[3,2-b]pyrrole-5-carboxylic acid 2-(5-chloro-1H-indole-2-carbonyl)hydrazide], for which the IC50 worked out at 56 nM. With `O=C(NNC(=O)c1cc2cc(Cl)ccc2[nH]1)c1ccc([N+](=O)[O-])cc1` [Example 1-12, 4-nitrobenzoic acid 2-(5-chloro-1H-indole-2-carbonyl)hydrazide], the IC50 amounted to 790 nM.

With `O=C(NNC(=O)c1cc2cc(Cl)ccc2[nH]1)c1ccc(-c2ncn[nH]2)cc1` [Example 1-73, 4-(2H-[1,2,4]triazol-3-yl)benzoic acid 2-(5-chloro-1H-indole-2-carbonyl)hydrazide], the IC50 was determined as 76 nM. With `CS(=O)(=O)O.N=C(Cc1ccccc1)NNC(=O)c1cc2cc(Cl)ccc2[nH]1` [Example 6-21, 5-chloro-1H-indole-2-carboxylic acid 2-((1-imino-2-phenylethyl)hydrazide methanesulfonate], the IC50 is 84 nM. For `O=C(NNC(=O)c1ccccc1Cl)c1cc2cc(Cl)ccc2[nH]1` [Example 1-19, 2-chlorobenzoic acid 2-(5-chloro-1H-indole-2-carbonyl)hydrazide], the IC50 was found to be 91 nM. The figure for `Nc1ccsc1C(=O)NNC(=O)c1cc2cc(Cl)ccc2[nH]1` [Example 1-101, 3-aminothiophene-2-carboxylic acid 2-(5-chloro-1H-indole-2-carbonyl)hydrazide] is 35 nM. For `Cc1nc(C(=O)NNC(=O)c2cc3cc(Cl)ccc3[nH]2)cs1` [Example 1-72, 2-methylthiazole-4-carboxylic acid 2-(5-chloro-1H-indole-2-carbonyl)hydrazide], the half-inhibitory concentration (IC50) was > 100 nM. With `Cc1ccccc1C(=O)NNC(=O)c1cc2cc(Cl)ccc2[nH]1` [Example 1-13, 2-methylbenzoic acid 2-(5-chloro-1H-indole-2-carbonyl)hydrazide], the IC50 came to 72 nM. Turning to `Cc1ccc2[nH]c(C(=O)NNC(=O)c3cc(F)c(F)cc3N)cc2c1` [Example 1-67, 2-Amino-4,5-difluorobenzoic acid 2-(5-methyl-1H-indole-2-carbonyl)hydrazide], the IC50 turned out to be 54 nM. As to `CCc1ccc2[nH]c(C(=O)Nn3c(=O)[nH]c4ccccc4c3=O)cc2c1` [Example 2-25, 5-ethyl-1H-indole-2-carboxylic acid (1,2,3,4-tetrahydro-2,4-dioxoquinazolin-3-yl)amide], the IC50 was > 100 nM.

The IC50 is the concentration that gives 50% inhibition.
